Measurements taken from PubChem BioAssay (NCI).
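Exposure lasted 48 hours, with cells grown in 96-well plates and compounds tested at five concentrations. TGI: total growth inhibition.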

Assays:
Assay in all cases: inhibition of tumour cell growth, NCI panel, 48 h
OVCAR-5 ovarian = test system: OVCAR-5 ovarian
HT29 colon = test system: HT29 colon
SNB-19 CNS = test system: SNB-19 CNS
LOX IMVI melanoma = test system: LOX IMVI melanoma
HOP-62 NSCLC = test system: HOP-62 NSCLC
HS 578T breast = test system: HS 578T breast
UACC-62 melanoma = test system: UACC-62 melanoma
MOLT-4 leukemia = test system: MOLT-4 leukemia
SK-OV-3 ovarian = test system: SK-OV-3 ovarian
SK-MEL-2 melanoma = test system: SK-MEL-2 melanoma
UO-31 renal = test system: UO-31 renal
U251 CNS = test system: U251 CNS
HCT-15 colon = test system: HCT-15 colon
K-562 leukemia = test system: K-562 leukemia
MDA-MB-231 breast = test system: MDA-MB-231 breast
NCI-H460 lung = test system: NCI-H460 lung
SW-620 colon = test system: SW-620 colon
IGROV1 ovarian = test system: IGROV1 ovarian
M14 melanoma = test system: M14 melanoma
DU-145 prostate = test system: DU-145 prostate

With `Cn1c(=O)c2c(nc3sc4c(n32)C(=O)c2c(O)ccc(O)c2C4=O)n(C)c1=O` the TGI (OVCAR-5 ovarian) was 48.6 µM, the TGI (HT29 colon) was 4.34 µM and the TGI (SNB-19 CNS) was greater than 91.5 µM. The TGI (LOX IMVI melanoma) was 2.75 µM, the TGI (HOP-62 NSCLC) was 30 µM and the TGI (HS 578T breast) was 64.1 µM. The TGI (UACC-62 melanoma) was 8.5 µM, the TGI (MOLT-4 leukemia) was 5.08 µM and the TGI (SK-OV-3 ovarian) was greater than 100 µM. It also gave a TGI (SK-MEL-2 melanoma) of 17.5 µM, a TGI (UO-31 renal) of 11.6 µM and a TGI (U251 CNS) greater than 48.7 µM. For the same compound, the TGI (HCT-15 colon) was 4.72 µM, the TGI (K-562 leukemia) was 2.44 µM and the TGI (MDA-MB-231 breast) was 5.26 µM. For the same compound, the TGI (NCI-H460 lung) was greater than 59.4 µM, the TGI (SW-620 colon) was 1.78 µM and the TGI (IGROV1 ovarian) was 25.4 µM. The TGI (M14 melanoma) was 6.48 µM and the TGI (DU-145 prostate) was 26.7 µM.
With `NC(=O)c1ncn(C2OC(CO)C(O)C2O)c1NC=O` (stereo not given) the TGI (OVCAR-5 ovarian) was greater than 100 µM, the TGI (HT29 colon) was greater than 100 µM and the TGI (SNB-19 CNS) was greater than 100 µM. For the same compound, the TGI (LOX IMVI melanoma) was greater than 100 µM, the TGI (HOP-62 NSCLC) was greater than 100 µM and the TGI (HS 578T breast) was greater than 100 µM. For the same compound, the TGI (UACC-62 melanoma) was greater than 100 µM, the TGI (MOLT-4 leukemia) was greater than 100 µM and the TGI (SK-OV-3 ovarian) was greater than 100 µM. For the same compound, the TGI (SK-MEL-2 melanoma) was greater than 100 µM, the TGI (UO-31 renal) was greater than 100 µM and the TGI (U251 CNS) was greater than 100 µM. It also gave a TGI (HCT-15 colon) greater than 100 µM, a TGI (K-562 leukemia) greater than 100 µM and a TGI (MDA-MB-231 breast) greater than 100 µM. It also gave a TGI (NCI-H460 lung) greater than 100 µM, a TGI (SW-620 colon) greater than 100 µM and a TGI (IGROV1 ovarian) greater than 100 µM. For the same compound, the TGI (M14 melanoma) was greater than 100 µM and the TGI (DU-145 prostate) was greater than 100 µM.
`CCOC(=O)Cn1c(=O)c2nc(SC)sc2n(-c2ccccc2)c1=S` was tested, and the TGI (OVCAR-5 ovarian) was greater than 100 µM, the TGI (HT29 colon) was greater than 100 µM and the TGI (SNB-19 CNS) was 30.6 µM. It also gave a TGI (LOX IMVI melanoma) greater than 100 µM, a TGI (HOP-62 NSCLC) of 57.1 µM and a TGI (HS 578T breast) of 34.4 µM. For the same compound, the TGI (UACC-62 melanoma) was 11.5 µM, the TGI (MOLT-4 leukemia) was greater than 100 µM and the TGI (SK-OV-3 ovarian) was 60.7 µM. It also gave a TGI (SK-MEL-2 melanoma) of 63.1 µM, a TGI (UO-31 renal) of 15 µM and a TGI (U251 CNS) of 29.3 µM. The TGI (HCT-15 colon) was greater than 100 µM, the TGI (K-562 leukemia) was greater than 100 µM and the TGI (MDA-MB-231 breast) was 72.9 µM. The TGI (NCI-H460 lung) was 99.4 µM, the TGI (SW-620 colon) was greater than 100 µM and the TGI (IGROV1 ovarian) was greater than 100 µM. It also gave a TGI (M14 melanoma) of 70.4 µM and a TGI (DU-145 prostate) greater than 100 µM.
In the case of `O=C(CCCN1CCC(Nc2ccccc2)(c2nnnn2C2CCCCC2)CC1)c1ccc(F)cc1`, the TGI (OVCAR-5 ovarian) was 19.6 µM, the TGI (HT29 colon) was 14.6 µM and the TGI (SNB-19 CNS) was 21.4 µM. For the same compound, the TGI (LOX IMVI melanoma) was greater than 100 µM, the TGI (HOP-62 NSCLC) was 21.3 µM and the TGI (HS 578T breast) was 29.2 µM. The TGI (UACC-62 melanoma) was 23.9 µM, the TGI (MOLT-4 leukemia) was 46.2 µM and the TGI (SK-OV-3 ovarian) was 26.1 µM. For the same compound, the TGI (SK-MEL-2 melanoma) was 23.7 µM, the TGI (UO-31 renal) was 12.8 µM and the TGI (U251 CNS) was 18 µM. The TGI (HCT-15 colon) was greater than 100 µM, the TGI (K-562 leukemia) was 33.9 µM and the TGI (MDA-MB-231 breast) was 24.2 µM. The TGI (NCI-H460 lung) was 35 µM, the TGI (SW-620 colon) was greater than 100 µM and the TGI (IGROV1 ovarian) was 23.2 µM. For the same compound, the TGI (M14 melanoma) was 3.98 µM and the TGI (DU-145 prostate) was 15.5 µM.
In the case of `OC[P+](CO)(CO)C12CC3CC(CC(C3)C1)C2`, the TGI (OVCAR-5 ovarian) was greater than 100 µM, the TGI (HT29 colon) was greater than 100 µM and the TGI (SNB-19 CNS) was greater than 100 µM. It also gave a TGI (LOX IMVI melanoma) greater than 29.8 µM, a TGI (HOP-62 NSCLC) greater than 100 µM and a TGI (HS 578T breast) greater than 100 µM. For the same compound, the TGI (UACC-62 melanoma) was greater than 100 µM, the TGI (MOLT-4 leukemia) was greater than 80.9 µM and the TGI (SK-OV-3 ovarian) was greater than 100 µM. The TGI (SK-MEL-2 melanoma) was greater than 100 µM, the TGI (UO-31 renal) was greater than 100 µM and the TGI (U251 CNS) was greater than 100 µM. The TGI (HCT-15 colon) was greater than 100 µM, the TGI (K-562 leukemia) was greater than 100 µM and the TGI (MDA-MB-231 breast) was greater than 100 µM. For the same compound, the TGI (NCI-H460 lung) was greater than 100 µM, the TGI (SW-620 colon) was greater than 100 µM and the TGI (IGROV1 ovarian) was greater than 100 µM. For the same compound, the TGI (M14 melanoma) was greater than 100 µM and the TGI (DU-145 prostate) was greater than 100 µM.
`O=c1[nH]nc(Cc2ccccc2)n1CCCl` gave a TGI (OVCAR-5 ovarian) greater than 100 µM, a TGI (HT29 colon) greater than 100 µM and a TGI (SNB-19 CNS) greater than 100 µM. It also gave a TGI (LOX IMVI melanoma) greater than 100 µM, a TGI (HOP-62 NSCLC) greater than 100 µM and a TGI (HS 578T breast) greater than 100 µM. The TGI (UACC-62 melanoma) was greater than 100 µM, the TGI (MOLT-4 leukemia) was greater than 100 µM and the TGI (SK-OV-3 ovarian) was greater than 100 µM. For the same compound, the TGI (SK-MEL-2 melanoma) was greater than 100 µM, the TGI (UO-31 renal) was greater than 100 µM and the TGI (U251 CNS) was greater than 100 µM. For the same compound, the TGI (HCT-15 colon) was greater than 100 µM, the TGI (K-562 leukemia) was greater than 100 µM and the TGI (MDA-MB-231 breast) was greater than 100 µM. It also gave a TGI (NCI-H460 lung) greater than 100 µM, a TGI (SW-620 colon) greater than 100 µM and a TGI (IGROV1 ovarian) greater than 100 µM. The TGI (M14 melanoma) was greater than 100 µM and the TGI (DU-145 prostate) was greater than 100 µM.
`C/C=C1\CC2C(=O)CCC2C2c3ccccc3OC12` (stereo not given) showed a TGI (OVCAR-5 ovarian) greater than 100 µM, a TGI (HT29 colon) greater than 100 µM and a TGI (SNB-19 CNS) greater than 100 µM. The TGI (LOX IMVI melanoma) was greater than 100 µM, the TGI (HOP-62 NSCLC) was greater than 100 µM and the TGI (HS 578T breast) was greater than 100 µM. The TGI (UACC-62 melanoma) was greater than 100 µM, the TGI (MOLT-4 leukemia) was greater than 100 µM and the TGI (SK-OV-3 ovarian) was greater than 100 µM. The TGI (SK-MEL-2 melanoma) was greater than 100 µM, the TGI (UO-31 renal) was greater than 100 µM and the TGI (U251 CNS) was greater than 100 µM. The TGI (HCT-15 colon) was greater than 100 µM, the TGI (K-562 leukemia) was greater than 100 µM and the TGI (MDA-MB-231 breast) was greater than 100 µM. For the same compound, the TGI (NCI-H460 lung) was greater than 100 µM, the TGI (SW-620 colon) was greater than 100 µM and the TGI (IGROV1 ovarian) was greater than 100 µM. For the same compound, the TGI (M14 melanoma) was greater than 100 µM and the TGI (DU-145 prostate) was 10.7 µM.
Work on `CCOC(=O)C1(C(=O)OCC)C[C@@H](C)[C@@H](O)C1` yielded a TGI (OVCAR-5 ovarian) greater than 100 µM, a TGI (HT29 colon) greater than 100 µM and a TGI (SNB-19 CNS) greater than 100 µM. For the same compound, the TGI (LOX IMVI melanoma) was greater than 100 µM, the TGI (HOP-62 NSCLC) was greater than 100 µM and the TGI (HS 578T breast) was greater than 100 µM. It also gave a TGI (UACC-62 melanoma) greater than 100 µM, a TGI (MOLT-4 leukemia) greater than 100 µM and a TGI (SK-OV-3 ovarian) greater than 100 µM. It also gave a TGI (SK-MEL-2 melanoma) greater than 100 µM, a TGI (UO-31 renal) greater than 100 µM and a TGI (U251 CNS) greater than 100 µM. For the same compound, the TGI (HCT-15 colon) was greater than 100 µM, the TGI (K-562 leukemia) was greater than 100 µM and the TGI (MDA-MB-231 breast) was greater than 100 µM. For the same compound, the TGI (NCI-H460 lung) was greater than 100 µM, the TGI (SW-620 colon) was greater than 100 µM and the TGI (IGROV1 ovarian) was greater than 100 µM. The TGI (M14 melanoma) was greater than 100 µM and the TGI (DU-145 prostate) was greater than 100 µM.
For `CC1=NNC(=O)C1C1CC(c2c[nH]c3ccccc23)=NN(C(N)=O)C1=O` (stereo not given), the TGI (OVCAR-5 ovarian) was greater than 100 µM, the TGI (HT29 colon) was greater than 100 µM and the TGI (SNB-19 CNS) was greater than 100 µM. The TGI (LOX IMVI melanoma) was greater than 100 µM, the TGI (HOP-62 NSCLC) was greater than 100 µM and the TGI (HS 578T breast) was greater than 100 µM. The TGI (UACC-62 melanoma) was greater than 100 µM, the TGI (MOLT-4 leukemia) was greater than 100 µM and the TGI (SK-OV-3 ovarian) was greater than 100 µM. It also gave a TGI (SK-MEL-2 melanoma) greater than 100 µM, a TGI (UO-31 renal) greater than 100 µM and a TGI (U251 CNS) greater than 100 µM. It also gave a TGI (HCT-15 colon) greater than 100 µM, a TGI (K-562 leukemia) greater than 100 µM and a TGI (MDA-MB-231 breast) greater than 100 µM. The TGI (NCI-H460 lung) was greater than 100 µM, the TGI (SW-620 colon) was greater than 100 µM and the TGI (IGROV1 ovarian) was greater than 100 µM. It also gave a TGI (M14 melanoma) greater than 100 µM and a TGI (DU-145 prostate) greater than 100 µM.
For `COc1ccc2[nH]cc(C(=O)C(=O)NC34CC5CC(CC(C5)C3)C4)c2c1`, the TGI (OVCAR-5 ovarian) was greater than 100 µM, the TGI (HT29 colon) was 5.32 µM and the TGI (SNB-19 CNS) was greater than 100 µM. It also gave a TGI (LOX IMVI melanoma) greater than 100 µM, a TGI (HOP-62 NSCLC) of 74.7 µM and a TGI (HS 578T breast) greater than 91.1 µM. For the same compound, the TGI (UACC-62 melanoma) was greater than 69.4 µM, the TGI (MOLT-4 leukemia) was 16.6 µM and the TGI (SK-OV-3 ovarian) was greater than 100 µM. It also gave a TGI (SK-MEL-2 melanoma) greater than 100 µM, a TGI (UO-31 renal) greater than 100 µM and a TGI (U251 CNS) greater than 85.3 µM. It also gave a TGI (HCT-15 colon) greater than 90.3 µM, a TGI (K-562 leukemia) of 37.6 µM and a TGI (MDA-MB-231 breast) of 97.9 µM. The TGI (NCI-H460 lung) was 91.3 µM, the TGI (SW-620 colon) was greater than 100 µM and the TGI (IGROV1 ovarian) was greater than 100 µM. It also gave a TGI (M14 melanoma) greater than 100 µM and a TGI (DU-145 prostate) greater than 100 µM.
